Source: patent US8722661B2, “Pyrrolopyrimidone and pyrrolopyridone inhibitors of tankyrase” (Genentech, Inc., priority 2012, dated 2014)

Columns and labels:
[1] = biological target: T1, Tankyrase 1 (TNKS1) (Homo sapiens, UniProt O95271); test: μHTS-TNKS-IWR2 TR-FRET binding assay (TNKS1)
T1 construct: construct: 1088-1327, 1266M
Procedure: (§1) μHTS-TNKS-IWR2TR-FRET Binding Assay
(§2) (10 μL/well in BD1536-well plate, a single point)
Reagents and Stock Solutions
(§3) Biotin-IWR2: 10 mM Biotin-IWR2 stock in DMSO, stored at −20° C.
Assay buffer 1a (AB 1a) for TNKS dilution: 50 mM Tris, pH 7.4, 100 mM sodium chloride solution, 1 mM magnesium chloride solution, 1 mM DL-dithiothreitol solution, 0.2 mg/mL bovine serum albumin solution, 0.025% NP-40.
Assay buffer 1b (AB 1b) for Biotin-IWR2 dilution: 50 mM Tris, pH 7.4, 100 mM sodium chloride solution, 1 mM magnesium chloride solution, 1 mM DL-dithiothreitol solution, 0.2 mg/mL bovine serum albumin solution, 0.05% NP-40
Assay buffer 1c (AB 1c) for compound dilution: 50 mM Tris, pH 7.4, 100 mM sodium chloride solution, 1 mM magnesium chloride solution, 1 mM DL-dithiothreitol solution, 0.2 mg/mL bovine serum albumin solution
Assay buffer 2 (AB2) for Eu/APC: 50 mM Tris, pH 7.4, 100 mM sodium chloride solution, 1 mM magnesium chloride solution, 0.2 mg/mL bovine serum albumin solution
Reagent Stock Solution Preparation
Prepare BLANK well stock solution: 5% DMSO/AB1b buffer
Prepare TNKS1 stock solution (5× stock): 300 nM TNKS in AB1a buffer
(§4) Transfer 3 μL/well above solution (solution 1,2,3) to an empty assay plate (BD1536-well plate) as follows:
TOTL and cpd wells: Solution 1 (Biotin-IWR2):
BLNK wells: Solution 2 (No Biotin-IWR2):
POSITIVE CONTROL wells: Solution 3 (Biotin-IWR2+XAV939)
(§5) Transfer 3 μL/well of the above diluted compound solutions or compound dilution buffer to the above assay plate.
(§6) Add 2 μL/well of 300 nM TNKS stock solution (4) to every well in the above assay plate.
Centrifuge the assay plate at 2100 rpm for 2 minutes.
(§7) Incubate the assay plate at 26° C. for 30 minutes.
(§8) Incubate the assay plate at 26° C. for 60 minutes.

[2] = biological target: T2, tankyrase 2 (His6-TNKS2) (Homo sapiens, UniProt Q9H2K2); test: μHTS-TNKS-IWR2 TR-FRET binding assay with His6-TNKS2 in place of TNKS1; conditions: Table I
T2 construct: His6-tankyrase 2 (construct: 934-1166)
T2 sequence (Q9H2K2 934-1166): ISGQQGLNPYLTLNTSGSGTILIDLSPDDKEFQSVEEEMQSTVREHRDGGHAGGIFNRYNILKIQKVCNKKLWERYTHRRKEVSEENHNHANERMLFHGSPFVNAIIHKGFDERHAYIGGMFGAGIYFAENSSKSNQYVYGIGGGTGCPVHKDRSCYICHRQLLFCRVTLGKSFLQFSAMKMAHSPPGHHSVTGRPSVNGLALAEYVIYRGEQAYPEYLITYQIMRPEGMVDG
Procedure: as §1, §2
(§9) Alternatively, in place of His6-TNKS1 can use either His6-tankyrase 2 (construct: 934-1166) (His6-TNKS2) or His6-PARP1 (full length).
as §3
Positive control: 10 mM XAV 939 in DMSO, stored at −20° C.
(§10) Prepare Biotinylated IWR2 stock solution (3.33× stock) for TOTL and cpd wells: 200 nM Biotin-IWR2 in 5% DMSO/AB1b buffer
(§11) Prepare POSITIVE CONTROL well stock solution (3.33× stock): 200 nM XAV939 in 200 nM Biotin-IWR2/5% DMSO/AB1b buffer
(§12) (Alternatively, use TNKS2 or PARP1 stock solutions.)
(§13) Prepare Eu/APC stock solution (5× stock): 3.5 nM Eu-SA/50 nM APC-His6Ab in AB2 buffer
(§14) Add 25 μL/well 1.5% DMSO/AB1c buffer in each compound well to the compound concentration at 74 μM in 8.8% DMSO/AB1c buffer or in the 2 μL DMSO CONTROL wells (BLANK, TOTAL and POSITIVE wells) in the compound plate.
as §4, §5, §6, §7, §8
(§15) Read the assay plate immediately at excitation wavelength of 330 nm and emission wavelength of […] in time resolved fluorescence mode.
(§16) Representative compound data for assays are listed below in Table I. Values are in uM.

[3] = biological target: T3, PARP1 (His6-PARP1, full length) (Homo sapiens, UniProt P09874); test: μHTS-TNKS-IWR2 TR-FRET binding assay with His6-PARP1 in place of TNKS1; conditions: Table I
T3 construct: His6-PARP1 (full length)
T3 sequence (P09874 whole entry): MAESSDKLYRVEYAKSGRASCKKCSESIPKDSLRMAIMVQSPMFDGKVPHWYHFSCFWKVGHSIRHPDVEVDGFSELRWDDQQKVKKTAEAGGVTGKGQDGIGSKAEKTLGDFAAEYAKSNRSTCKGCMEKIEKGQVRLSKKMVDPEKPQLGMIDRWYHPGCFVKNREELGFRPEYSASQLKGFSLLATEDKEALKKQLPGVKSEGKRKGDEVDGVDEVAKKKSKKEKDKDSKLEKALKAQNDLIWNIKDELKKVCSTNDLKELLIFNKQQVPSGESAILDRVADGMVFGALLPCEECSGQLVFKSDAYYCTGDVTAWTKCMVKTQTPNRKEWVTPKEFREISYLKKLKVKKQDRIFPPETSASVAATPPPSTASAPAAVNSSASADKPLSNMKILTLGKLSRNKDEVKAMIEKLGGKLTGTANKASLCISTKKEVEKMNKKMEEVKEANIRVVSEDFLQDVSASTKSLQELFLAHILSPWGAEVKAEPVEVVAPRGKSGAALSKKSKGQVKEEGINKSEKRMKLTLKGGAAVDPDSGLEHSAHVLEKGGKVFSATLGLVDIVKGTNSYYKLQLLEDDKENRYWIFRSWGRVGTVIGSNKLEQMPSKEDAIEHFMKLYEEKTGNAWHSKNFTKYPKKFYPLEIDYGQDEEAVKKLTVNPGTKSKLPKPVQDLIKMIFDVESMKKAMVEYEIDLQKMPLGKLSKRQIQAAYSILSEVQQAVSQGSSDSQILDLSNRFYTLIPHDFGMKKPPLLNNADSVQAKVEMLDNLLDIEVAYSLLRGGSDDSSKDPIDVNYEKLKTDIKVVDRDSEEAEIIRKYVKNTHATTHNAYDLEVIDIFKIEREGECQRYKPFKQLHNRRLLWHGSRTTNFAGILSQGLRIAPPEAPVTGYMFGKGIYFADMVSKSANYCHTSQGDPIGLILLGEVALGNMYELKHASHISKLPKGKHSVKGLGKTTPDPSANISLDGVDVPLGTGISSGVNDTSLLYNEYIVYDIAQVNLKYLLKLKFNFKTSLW
Procedure: as §1, §2, §9, §3
Positive control: 10 mM […] in DMSO, stored at −20° C.
as §10, §11, §12, §13, §14, §4, §5, §6, §7, §8, §15, §16

T1 sequence (O95271 1088-1327): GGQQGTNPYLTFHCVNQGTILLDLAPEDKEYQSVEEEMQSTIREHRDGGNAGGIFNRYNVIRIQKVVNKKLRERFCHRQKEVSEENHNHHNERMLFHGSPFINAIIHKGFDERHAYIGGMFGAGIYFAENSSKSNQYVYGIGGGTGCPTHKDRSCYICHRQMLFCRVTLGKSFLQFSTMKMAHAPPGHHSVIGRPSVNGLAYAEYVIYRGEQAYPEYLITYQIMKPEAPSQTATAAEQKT

| SMILES | IC50 [1] [nM] | IC50 [2] [nM] | IC50 [3] [nM] |
| --- | --- | --- | --- |
| Cn1ccc2c(=O)[nH]c(N3CCN(c4ccncc4)CC3)nc21 [Example 1, 7-Methyl-2-(4-pyridin-4-yl-piperazin-1-yl)-3,7-dihydro-pyrrolo[2,3-d]pyrimidin-4-one] | 722 | 593 | 143 |
| CCOC(=O)c1ccc(N2CCN(c3nc4c(ccn4C)c(=O)[nH]3)CC2)cc1 [Example 2, Ethyl 4-(4-(7-methyl-4-oxo-4,7-dihydro-3H-pyrrolo[2,3-d]pyrimidin-2-yl)piperazin-1-yl)benzoate] | 70 | 66 | 564 |
| Cn1ccc2c(=O)[nH]c(N3CCN(c4ccc(Cl)cc4)CC3)nc21 [Example 3, 2-[4-(4-Chloro-phenyl)-piperazin-1-yl]-7-methyl-3,7-dihydro-pyrrolo[2,3-d]pyrimidin-4-one] | 42 | 51 | 1060 |
| Cn1ccc2c(=O)[nH]c(N3CCN(c4ccccn4)CC3)nc21 [Example 4, 7-Methyl-2-(4-pyridin-2-yl-piperazin-1-yl)-3,7-dihydro-pyrrolo[2,3-d]pyrimidin-4-one] | 134 | 118 | 437 |
| Cn1ccc2c(=O)[nH]c(N3CCN(c4ccc(F)cc4S(C)(=O)=O)CC3)nc21 [Example 5, 2-[4-(4-Fluoro-2-methanesulfonyl-phenyl)-piperazin-1-yl]-7-methyl-3,7-dihydro-pyrrolo[2,3-d]pyrimidin-4-one] | 30 | 35 | 1180 |
| Cn1ccc2c(=O)[nH]c(N3CCN(c4ncccc4C(F)(F)F)CC3)nc21 [Example 6, 7-Methyl-2-[4-(3-trifluoromethyl-pyridin-2-yl)-piperazin-1-yl]-3,7-dihydro-pyrrolo[2,3-d]pyrimidin-4-one] | 34 | 36 | 2210 |
| Cn1ccc2c(=O)[nH]c(N3CCN(c4cc(Cl)cc(Cl)c4)CC3)nc21 [Example 7, 2-[4-(3,5-Dichloro-phenyl)-piperazin-1-yl]-7-methyl-3,7-dihydro-pyrrolo[2,3-d]pyrimidin-4-one] | 494 | 405 | > 50000 |
| Cn1ccc2c(=O)[nH]c(N3CCN(c4ncccn4)CC3)nc21 [Example 8, 7-Methyl-2-(4-pyrimidin-2-yl-piperazin-1-yl)-3,7-dihydro-pyrrolo[2,3-d]pyrimidin-4-one] | 190 | 143 | 339 |
| Cn1ccc2c(=O)[nH]c(N3CCN(c4ncccc4C#N)CC3)nc21 [Example 9, 2-[4-(7-Methyl-4-oxo-4,7-dihydro-3H-pyrrolo[2,3-d]pyrimidin-2-yl)-piperazin-1-yl]-nicotinonitrile] | 70 | 63 | 618 |
| Cn1ccc2c(=O)[nH]c(N3CCN(c4nccnc4C#N)CC3)nc21 [Example 10, 4-(7-Methyl-4-oxo-4,7-dihydro-3H-pyrrolo[2,3-d]pyrimidin-2-yl)-3,4,5,6-tetrahydro-2H-[1,2]bipyrazinyl-3′-carbonitrile] | 111 | 121 | 603 |
| CN1CCN(c2nc3c(ccn3C)c(=O)[nH]2)CC1 [Example 11, 7-Methyl-2-(4-methyl-piperazin-1-yl)-3,7-dihydro-pyrrolo[2,3-d]pyrimidin-4-one] | 358 | 285 | 471 |
| Cn1ccc2c(=O)[nH]c(N3CCOCC3)nc21 [Example 12, 7-Methyl-2-morpholin-4-yl-3,7-dihydro-pyrrolo[2,3-d]pyrimidin-4-one] | 1910 | 1830 | 1720 |
| Cn1ccc2c(=O)[nH]c(N3CCN(S(C)(=O)=O)CC3)nc21 [Example 13, 2-(4-Methanesulfonyl-piperazin-1-yl)-7-methyl-3,7-dihydro-pyrrolo[2,3-d]pyrimidin-4-one] | 112 | 126 | 604 |
